Experimental data from patent US12133901B2, “PSMA ligand targeted compounds and uses thereof” (CASE WESTERN RESERVE UNIVERSITY, priority 2019, dated 2024).
Numbered stars: 1 amine (or outer) side, 2 acyl side, 3 side chain; on linkers, the order of the positions; unused ones are H or OH. Square brackets hold non-standard residues; d marks the D form. Peptide text beside a SMILES is read from it. γGlu = O=C(O)[C@H](CCC(=O)[*:2])N[*:1]; X1 = O=C(C1CCC(CN[*:1])CC1)[*:2]; CO = O=C([*:1])[*:2]; Ahx = NCCCCCC(=O)O

Target: T1, PSMA (Homo sapiens, UniProt Q04609)
T1 construct: LNcap cells were trypsinized and washed with cold Tris buffer; endogenous in cells; host or cells: LNCaP cells (printed 'LNcap'), whole-cell suspension
T1 sequence (Q04609 whole entry): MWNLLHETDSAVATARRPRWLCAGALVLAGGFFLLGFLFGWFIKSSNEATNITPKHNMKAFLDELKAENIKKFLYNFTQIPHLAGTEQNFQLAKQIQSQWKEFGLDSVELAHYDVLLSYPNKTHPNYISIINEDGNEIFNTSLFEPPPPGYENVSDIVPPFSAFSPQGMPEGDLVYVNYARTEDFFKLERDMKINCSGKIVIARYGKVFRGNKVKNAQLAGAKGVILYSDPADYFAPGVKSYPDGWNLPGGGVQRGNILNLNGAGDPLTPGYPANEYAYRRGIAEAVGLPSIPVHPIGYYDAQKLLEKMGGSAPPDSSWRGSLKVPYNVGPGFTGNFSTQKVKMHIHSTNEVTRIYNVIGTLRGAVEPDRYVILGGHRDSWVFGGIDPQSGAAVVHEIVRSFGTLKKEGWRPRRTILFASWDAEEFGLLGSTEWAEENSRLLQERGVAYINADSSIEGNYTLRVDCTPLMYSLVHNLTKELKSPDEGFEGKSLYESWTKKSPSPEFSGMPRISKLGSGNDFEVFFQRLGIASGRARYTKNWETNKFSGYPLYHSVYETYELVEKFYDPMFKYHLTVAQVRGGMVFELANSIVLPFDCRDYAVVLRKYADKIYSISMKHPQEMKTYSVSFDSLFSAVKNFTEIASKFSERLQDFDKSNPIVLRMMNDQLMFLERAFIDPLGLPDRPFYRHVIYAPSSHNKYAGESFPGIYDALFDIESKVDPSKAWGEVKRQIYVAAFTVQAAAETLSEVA
Experiment: Competition binding assay against 3H-ZJ24
Settings: PSMA-expressing LNcap cells, 12 nM 3H-labelled ZJ24, 1 h at 37° C.; read-out: IC50 (concentration of ligand required to inhibit 50% of binding)
Description: LNcap cells were trypsinized and washed with cold Tris buffer (0.5 mM). […] Each group was done in triplicate. The mixture was then centrifuged and washed three times with cold PBS. Finally, 4 m L of EcoLume cocktail (MP biomedicals) was added to each sample, and radioactivity was counted by a scintillation counter. The concentration of ligands required to inhibit 50% of binding (IC50) was determined by GraphPad Prism 3.0.

SMILES	IC50 [nM]
NCCCC[C@H](NC(=O)[C@H](CCC(=O)O)NC(=O)[C@H](CCC(=O)O)NC(=O)[C@H](CCC(=O)O)NC(=O)CCCCCNC(=O)C1CCC(CNC(=O)CC[C@H](NC(=O)N[C@@H](CCC(=O)O)C(=O)O)C(=O)O)CC1)C(=O)N[C@@H](Cc1ccc(O)cc1)C(=O)N[C@@H](CS)C(N)=O (stereo partly drawn) [CY-PSMA-1, Glu-CO-Glu′-Amc-Ahx-Glu-Glu-Glu-Lys-Tyr-Cys-NH2] ({Glu-CO-γGlu}-[X1][Ahx]EEEKYC-NH2)	1.69
CSC[C@H](NC(=O)N[C@@H](CCC(=O)O)C(=O)O)C(=O)O [ZJ24]	8.31
